Laboratory results: patent US9085507B2, “Desfesoterodine in the form of a tartaric acid salt” (ratiopharm GmbH, priority 2009, dated 2015)
Structures can show the parent of a compound that is named as a salt.

Assays:
[1] = system: overactive bladder syndrome; conditions: both phase III studies, over placebo; cited from earlier work
[2] = In vitro solubility behaviour; format: physicochemical; conditions: for In vitro solubility profile: compared with fesoterodine fumarate
Description: The in vitro solubility behaviour of fesoterodine fumarate (crystalline, commercially available), desfesoterodine fumarate in accordance with Comparative Example 1 and desfesoterodine tartrate in accordance with Example 1 of the invention was investigated:
Solubility behaviour scale: • poor: <20 mg/ml • average: 20 to 60 mg/ml • good: >60 to 80 mg/ml • very good: >80 mg/ml

[3] = Stability on storage, stress test; format: physicochemical
Description: Further, the stability on storage of desfesoterodine tartrate was determined in a stress test.

SMILES	Clinically relevant outcomes (urge incontinence results/24 h, micturition frequency, median micturition volume) [1]	In vitro solubility behaviour ([2]; pH 4.5)	In vitro solubility behaviour ([2]; pH 10)	In vitro solubility profile [2]	In vitro solubility profile ([2]; listed as desfesoterodine salt of the invention)	Stability on storage ([3]; aqueous solution, pH of 4.5)	Stability on storage ([3]; aqueous solution, pH of 10)	Stability on storage ([3]; solid form)
CC(C)C(=O)Oc1ccc(CO)cc1[C@H](CCN(C(C)C)C(C)C)c1ccccc1 [Fesoterodine, 2-[(1R)-3-(diisopropylamino)-1-phenylpropyl]-4-(hydroxymethyl)phenyl-isobutyrate]	statistically significant improvements							
CC(C)C(=O)Oc1ccc(CO)cc1[C@H](CCN(C(C)C)C(C)C)c1ccccc1 [Fesoterodine fumarate, 2-[(1R)-3-(diisopropylamino)-1-phenylpropyl]-4-(hydroxymethyl)phenyl-isobutyrate]		Good	Good					
CC(C)N(CC[C@H](c1ccccc1)c1cc(CO)ccc1O)C(C)C [Desfesoterodine fumarate, (R)-2-(3-diisopropylamino-1-phenylpropyl)-4-hydroxymethylphenol]		Poor	Poor	substantially poorer in vitro solubility profile				
CC(C)N(CC[C@H](c1ccccc1)c1cc(CO)ccc1O)C(C)C [Desfesoterodine tartrate, (R)-2-(3-diisopropylamino-1-phenylpropyl)-4-hydroxymethylphenol]		Good	Good		almost identical in vitro solubility profile to that of fesoterodine fumarate	advantageous stability on storage	advantageous stability on storage	advantageous stability on storage
